In patent publication US12692223B2, “Phenyl-sulfamoyl-benzoic acid derivatives as ERAP1-modulators” (GREY WOLF THERAPEUTICS LIMITED, priority 2021, dated 2026) one finds IC50 data, which are given here for 32 molecules.

The target of this assay is T1, ERAP1 (Homo sapiens, UniProt Q9NZ08).
T1 construct: Purified ERAP1(37-941)-10His (ERAP1)
The assay is described as follows: ERAP1 mediated hydrolysis of an amide substrate measured in a biochemical system (10-mer inhibition assay). The settings on record: purified ERAP1(37-941)-10His; 10-mer substrate; 23° C. for 1 h; excitation 279 nm, emission 355 nm; read-out: IC50 vs Decapeptide WRVYEKC(Dnp)ALK-acid (where Dnp is Dinitrophenyl maleimide) (10-mer). In outline: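 Purified ERAP1(37-941)-10His in 25 mM Bis-tris propane, 0.05% HPMC, pH 7.75, with compound, then 100 μM 10-mer WRVYEKC(Dnp)ALK or 240 μM L-AMC added (stock concentrations before 1:1 mixing), 1 h at 23 °C. Fluorescence read at ex 279/em 355 nm (10-mer) or ex 365/em 442 nm (L-AMC); IC50 from 4-parameter fit.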

T1 sequence (Q9NZ08 37-941): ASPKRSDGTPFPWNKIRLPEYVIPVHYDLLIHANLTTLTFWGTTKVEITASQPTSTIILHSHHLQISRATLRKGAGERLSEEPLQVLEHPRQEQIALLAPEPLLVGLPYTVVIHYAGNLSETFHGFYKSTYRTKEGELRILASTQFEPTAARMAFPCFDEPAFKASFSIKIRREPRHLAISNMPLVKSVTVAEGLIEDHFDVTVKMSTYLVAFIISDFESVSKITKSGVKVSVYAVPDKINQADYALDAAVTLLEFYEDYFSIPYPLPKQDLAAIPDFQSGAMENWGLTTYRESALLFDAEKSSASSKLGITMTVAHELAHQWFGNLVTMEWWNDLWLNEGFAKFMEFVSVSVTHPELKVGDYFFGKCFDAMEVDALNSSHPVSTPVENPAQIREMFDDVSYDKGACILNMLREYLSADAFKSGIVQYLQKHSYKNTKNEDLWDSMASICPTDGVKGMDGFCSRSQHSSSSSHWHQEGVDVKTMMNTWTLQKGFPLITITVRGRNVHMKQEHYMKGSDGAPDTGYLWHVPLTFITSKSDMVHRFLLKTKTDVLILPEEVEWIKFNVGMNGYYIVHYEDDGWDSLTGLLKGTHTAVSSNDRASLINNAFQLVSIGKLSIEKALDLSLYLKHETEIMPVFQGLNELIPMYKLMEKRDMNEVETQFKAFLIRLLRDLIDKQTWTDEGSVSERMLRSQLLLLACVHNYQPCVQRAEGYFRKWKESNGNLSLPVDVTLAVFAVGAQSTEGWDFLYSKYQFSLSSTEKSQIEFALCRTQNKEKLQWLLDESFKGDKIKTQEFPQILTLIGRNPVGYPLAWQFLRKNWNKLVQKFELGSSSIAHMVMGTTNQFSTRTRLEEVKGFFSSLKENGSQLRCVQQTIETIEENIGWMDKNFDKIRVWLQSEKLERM

Usually IC50 stands for the concentration that gives 50% inhibition. On to `N#Cc1cc(NS(=O)(=O)c2cc(C(=O)O)c(F)cc2C2CC2)c(OC2CC(F)(F)C2)cc1Cl` [Example 17, 5-(N-(4-chloro-5-cyano-2-(3,3-difluorocyclobutoxy)phenyl)sulfamoyl)-4-cyclopropyl-2-fluorobenzoic acid], for which the IC50 is below 1 nM.
On to `N#Cc1cc(NS(=O)(=O)c2cc(C(=O)O)cc(F)c2C2CC2)c(OC2CCCC2)cc1Cl` [Example 18, 3-(N-(4-chloro-5-cyano-2-(cyclopentyloxy)phenyl)sulfamoyl)-4-cyclopropyl-5-fluorobenzoic acid], for which the IC50 is below 1 nM.
Under `N#Cc1cc(Cl)c(OC2CCCC2)c(NS(=O)(=O)c2cc(C(=O)O)ccc2C2CC2)c1` [Example 19, 3-(N-(3-chloro-5-cyano-2-(cyclopentyloxy)phenyl)sulfamoyl)-4-cyclopropylbenzoic acid] stands 1 to 5 nM; under `O=C(O)c1ccc(C2CC2)c(S(=O)(=O)Nc2cc(-c3ccns3)ccc2OC2CCCC2)c1` [Example 20, 3-(N-(2-(cyclopentyloxy)-5-(isothiazol-5-yl)phenyl)sulfamoyl)-4-cyclopropylbenzoic acid], below 1 nM; under `O=C(O)c1ccc(C2CC2)c(S(=O)(=O)Nc2cc(-c3ccns3)c(F)cc2OC2CCCC2)c1` [Example 21, 3-(N-(2-(cyclopentyloxy)-4-fluoro-5-(isothiazol-5-yl)phenyl)sulfamoyl)-4-cyclopropylbenzoic acid], 1 to 5 nM.
In the case of `O=C(O)c1ccc(C2CC2)c(S(=O)(=O)Nc2cc(-c3ccns3)c(Cl)cc2OC2CCCC2)c1` [Example 22, 3-(N-(4-chloro-2-(cyclopentyloxy)−5-(isothiazol-5-yl)phenyl)sulfamoyl)-4-cyclopropylbenzoic acid], the IC50 was below 1 nM.
In the case of `Cc1oncc1-c1ccc(OC2CCCC2)c(NS(=O)(=O)c2cc(C(=O)O)ccc2C2CC2)c1` [Example 23, 3-(N-(2-(cyclopentyloxy)-5-(5-methylisoxazol-4-yl)phenyl)sulfamoyl)-4-cyclopropylbenzoic acid], the 50% inhibitory concentration (IC50) was below 1 nM.
Under `Cc1oncc1-c1cc(NS(=O)(=O)c2cc(C(=O)O)ccc2C2CC2)c(OC2CCCC2)cc1F` [Example 24, 3-(N-(2-(cyclopentyloxy)-4-fluoro-5-(5-methylisoxazol-4-yl)phenyl)sulfamoyl)-4-cyclopropylbenzoic acid] stands below 1 nM; under `Cc1oncc1-c1cc(NS(=O)(=O)c2cc(C(=O)O)ccc2C2CC2)c(OC2CCCC2)cc1Cl` [Example 25, 3-(N-(4-chloro-2-(cyclopentyloxy)−5-(5-methylisoxazol-4-yl)phenyl)sulfamoyl)-4-cyclopropylbenzoic acid], below 1 nM; under `Cc1cc(C2CC2)c(S(=O)(=O)Nc2cc(C#N)c(Cl)cc2OC2CCCC2)cc1C(=O)O` [Example 26, 5-(N-(4-chloro-5-cyano-2-(cyclopentyloxy)phenyl)sulfamoyl)-4-cyclopropyl-2-methylbenzoic acid], 1 to 5 nM.
Under `CC1(COc2cc(Cl)c(C#N)cc2NS(=O)(=O)c2cc(C(=O)O)ccc2C2CC2)CCC1` [Example 27, 3-(N-(4-chloro-5-cyano-2-((1-methylcyclobutyl)methoxy)phenyl)sulfamoyl)-4-cyclopropylbenzoic acid] stands below 1 nM.
With `N#Cc1cc(NS(=O)(=O)c2cc(C(=O)O)ccc2C2CC2)c(OCC2CCOC2)cc1Cl` (centres unmarked) [Example 28, 3-(N-(4-chloro-5-cyano-2-((tetrahydrofuran-3-yl)methoxy)phenyl)sulfamoyl)-4-cyclopropylbenzoic acid] the figure was 1 to 5 nM; with `N#Cc1cc(NS(=O)(=O)c2cc(C(=O)O)ccc2C2CC2)c(OC2CCC23COC3)cc1Cl` (centres unmarked) [Example 29, 3-(N-(2-((2-oxaspiro[3.3]heptan-5-yl)oxy)-4-chloro-5-cyanophenyl)sulfamoyl)-4-cyclopropylbenzoic acid], below 1 nM; with `C#CC1(Oc2cc(Cl)c(C#N)cc2NS(=O)(=O)c2cc(C(=O)O)ccc2C2CC2)CCCC1` [Example 30, 3-(N-(4-chloro-5-cyano-2-((1-ethynylcyclopentyl)oxy)phenyl)sulfamoyl)-4-cyclopropylbenzoic acid], 1 to 5 nM.
In the case of `N#Cc1cc(NS(=O)(=O)c2cc(C(=O)O)ccc2C2CC2)c(OCC2CC(F)(F)C2)cc1Cl` [Example 31, 3-(N-(4-chloro-5-cyano-2-((3,3-difluorocyclobutyl)methoxy)phenyl)sulfamoyl)-4-cyclopropylbenzoic acid], the IC50 fell in the range of 1 to 5 nM.
Under `CC1(COc2cc(Cl)c(C#N)cc2NS(=O)(=O)c2cc(C(=O)O)ccc2C2CC2)COC1` [Example 32, 3-(N-(4-chloro-5-cyano-2-((3-methyloxetan-3-yl)methoxy)phenyl)sulfamoyl)-4-cyclopropylbenzoic acid] stands 1 to 5 nM; under `CC1(C)CC(Oc2cc(Cl)c(C#N)cc2NS(=O)(=O)c2cc(C(=O)O)ccc2C2CC2)C1` [Example 33, 3-(N-(4-chloro-5-cyano-2-(3,3-dimethylcyclobutoxy)phenyl)sulfamoyl)-4-cyclopropylbenzoic acid], below 1 nM; under `N#Cc1cc(NS(=O)(=O)c2cc(C(=O)O)ccc2C2CC2)c(OC2CC3(CC3)C2)cc1Cl` [Example 34, 3-(N-(4-chloro-5-cyano-2-(spiro[2.3]hexan-5-yloxy)phenyl)sulfamoyl)-4-cyclopropylbenzoic acid], below 1 nM.
With `N#Cc1cc(NS(=O)(=O)c2cc(C(=O)O)ccc2C2CC2)c(OCC2CCC2)cc1Cl` [Example 35, 3-(N-(4-chloro-5-cyano-2-(cyclobutylmethoxy)phenyl)sulfamoyl)-4-cyclopropylbenzoic acid] the figure was below 1 nM; with `N#Cc1cc(NS(=O)(=O)c2cc(C(=O)O)ccc2C2CC2)c(OCC2COC2)cc1Cl` [Example 36, 3-(N-(4-chloro-5-cyano-2-(oxetan-3-ylmethoxy)phenyl)sulfamoyl)-4-cyclopropylbenzoic acid], 1 to 5 nM; with `N#Cc1cc(NS(=O)(=O)c2cc(C(=O)O)ccc2C2CC2)c(OCC2(F)COC2)cc1Cl` [Example 37, 3-(N-(4-chloro-5-cyano-2-((3-fluorooxetan-3-yl)methoxy)phenyl)sulfamoyl)-4-cyclopropylbenzoic acid], 1 to 5 nM.
Consider `CN1CC(COc2cc(Cl)c(C#N)cc2NS(=O)(=O)c2cc(C(=O)O)ccc2C2CC2)C1` [Example 38, 3-(N-(4-chloro-5-cyano-2-((1-methylazetidin-3-yl)methoxy)phenyl)sulfamoyl)-4-cyclopropylbenzoic acid], for which the 50% inhibitory concentration (IC50) is above 5 nM.
With `N#Cc1cc(NS(=O)(=O)c2cc(C(=O)O)ccc2C2CC2)c(OC2CC3(CCC3)C2)cc1Cl` [Example 39, 3-(N-(4-chloro-5-cyano-2-(spiro[3.3]heptan-2-yloxy)phenyl)sulfamoyl)-4-cyclopropylbenzoic acid] the figure was 1 to 5 nM.
In the case of `N#Cc1cc(NS(=O)(=O)c2cc(C(=O)O)ccc2C2CC2)c(O[C@H]2C[C@H](C(F)(F)F)C2)cc1Cl` [Example 40, 3-(N-(4-chloro-5-cyano-2-((trans)−3-(trifluoromethyl)cyclobutoxy)phenyl)sulfamoyl)-4-cyclopropylbenzoic acid], the IC50 lay within 1 to 5 nM.
With `N#Cc1cc(NS(=O)(=O)c2cc(C(=O)O)ccc2C2CC2)c(O[C@@H]2C[C@@H]3C[C@@H]3C2)cc1Cl` [Example 41, Cis-3-(N-(2-(bicyclo[3.1.0]hexan-3-yloxy)− 4-chloro-5-cyanophenyl)sulfamoyl)-4-cyclopropylbenzoic acid] the figure was below 1 nM; with `CC(Oc1cc(Cl)c(C#N)cc1NS(=O)(=O)c1cc(C(=O)O)ccc1C1CC1)C1CCC1` (centres unmarked) [Example 42, 3-(N-(4-chloro-5-cyano-2-(1-cyclobutylethoxy)phenyl)sulfamoyl)-4-cyclopropylbenzoic acid], below 1 nM.
Under `N#Cc1cc(NS(=O)(=O)c2cc(C(=O)O)ccc2C2CC2)c(OCC2CNC2)cc1Cl` [Example 43, 3-(N-(2-(azetidin-3-ylmethoxy)-4-chloro-5-cyanophenyl)sulfamoyl)-4-cyclopropylbenzoic acid] stands above 5 nM.
Consider `N#Cc1cc(NS(=O)(=O)c2cc(C(=O)O)ccc2C2CC2)c(OCC2CCCC2)cc1Cl` [Example 44, 3-(N-(4-chloro-5-cyano-2-(cyclopentylmethoxy)phenyl)sulfamoyl)-4-cyclopropylbenzoic acid], for which the half-inhibitory concentration (IC50) was below 1 nM.
With `CC(Oc1cc(Cl)c(C#N)cc1NS(=O)(=O)c1cc(C(=O)O)ccc1C1CC1)C1COC1` (centres unmarked) [Example 45, 3-(N-(4-chloro-5-cyano-2-(1-(oxetan-3-yl)ethoxy)phenyl)sulfamoyl)-4-cyclopropylbenzoic acid] the figure was 1 to 5 nM; with `CO[C@H]1C[C@H](COc2cc(Cl)c(C#N)cc2NS(=O)(=O)c2cc(C(=O)O)ccc2C2CC2)C1` [Example 46, 3-(N-(4-chloro-5-cyano-2-((trans-3-methoxycyclobutyl)methoxy)phenyl)sulfamoyl)-4-cyclopropylbenzoic acid], 1 to 5 nM; with `CO[C@H]1C[C@@H](COc2cc(Cl)c(C#N)cc2NS(=O)(=O)c2cc(C(=O)O)ccc2C2CC2)C1` [Example 47, 3-(N-(4-chloro-5-cyano-2-((cis-3-methoxycyclobutyl)methoxy)phenyl)sulfamoyl)-4-cyclopropylbenzoic acid], below 1 nM.
With `N#Cc1cc(NS(=O)(=O)c2cc(C(=O)O)ccc2C2CC2)c(O[C@@H]2CCOC2)cc1Cl` [Example 48, (R)-3-(N-(4-chloro-5-cyano-2-((tetrahydrofuran-3-yl)oxy)phenyl)sulfamoyl)-4-cyclopropylbenzoic acid] the figure was below 1 nM.
